Test [1] deals with A431 cell. Nature of the test: Cell Proliferation Inhibition EGFR Assay (SRB method). Type of test: cell-based, homo sapient. The following applies: Homo sapiens, read-out: IC50 (A431). A digest of the protocol: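 A431 cells grown to ~85% confluence, then exposed 72 hours at 37° C to 6 to 7 serial concentrations of compound in DMEM/F12 + 10% FBS, final DMSO ≤0.5%. Growth measured by TCA fixation and sulforhodamine B staining; IC50 calculated from inhibition rates.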
(In general: In SRB staining, fixed cells bind dye roughly in proportion to their protein.)

Test [2] addresses T1, HER-2/ErbB2 kinase (Homo sapiens, UniProt P04626).
T1 construct: purchased Invitrogen corporation #PV3366
Nature of the test: HER-2 Kinase Assay (ELISA). Conditions: 20 μM ATP, 25° C. 60 minutes. Type of test: biochemical. How it is done:
An enzyme linked immunosorbent assays (ELISA) was conducted to measure the kinase activity of HER-2 in vitro.
a. Wash Buffer (PBS-T Buffer): 1×PBS (137 mM NaCl; 2.7 mM KCl, 4.3 mM Na2HPO4, 1.4 mM KH2PO4, adjust the pH to 7.2) and 0.05% Tween-20.
(§1) b. 1% Bovine Serum Albumin (BSA, Calbiochem #136593) in PBS-T.
c. Stop Buffer: 50 mM EDTA, pH 8.0.
d. DELFIA® Europium-labeled Anti-mouse IgG (PerkinElmer Life Sciences #AD0124).
e. DELFIA® Enhancement Solution (PerkinElmer Life Sciences #1244-105).
f. DELFIA® Streptavidin coated, 96-well, yellow plate (PerkinElmer Life Sciences #AAAND-0005).
g. HER-2/ErbB2 kinase (Invitrogen corporation #PV3366).
(§2) h. 10 mM ATP solution (Cell signaling technology #9804).
i. FLT3 (Tyr589) Biotinylated Peptide (Cell signaling technology #1305).
(§3) j. Phospho-Tyrosine Mouse mAb (P-Tyr-100) (Cell signaling technology #9411).
(§4) k. HTScan™ Tyrosine Kinase Buffer (4×)
(§5) (Cell signaling technology #9805).
(§6) l. 1.25 M DTT (1000×) (Cell signaling technology).
(§7) The following protocol was used:
1. Dilute test compound with DMSO to the desired final assay concentration. Add 1 μl test compound for every assay, to the negative control.
2. Dilute 6 μM substrate peptide (Tyr589) 1:1 with dH2O, add 15 μl to every assay.
3. Immediately transfer HER-2 enzyme from −80° C. to ice. Allow enzyme to thaw on ice.
4. Take 4.5 μg HER-2 enzyme to the enzyme tube.
(§8) 5. Add 10 μl of DTT (1.25 M) to 2.5 ml of 4×HTScan™ Tyrosine Kinase Buffer (240 mM HEPES pH 7.5, 20 mM MgCl2, 20 mM MnCl2, 12 μM Na3VO4) to make DTT/Kinase buffer.
(§9) 6. Transfer 0.75 ml of DTT/Kinase buffer to each enzyme tube to make 4× reaction cocktail. Add 7.5 μl 4× reaction cocktail to every assay.
7. Add 4 μl ATP (10 mM) to 496 μl dH2O, take 7.5 μl for every assay. Final Assay Conditions for a 30 μl Reaction
(§10) Incubate reaction tube at 25° C. for 60 minutes. 9. Add 30 μl/assay stop buffer (50 mM EDTA, pH 8.0) to stop the reaction. 10. Transfer 25 μl of each reaction and 75 μl dH2O/well to a 96-well streptavidin coated plate and incubate, with shaking at room temperature for 60 minutes. 11. Wash three times with 200 μl/well PBS-T buffer. Pat plate on paper towel to remove excess liquid. 12. Dilute primary antibody, Phospho-Tyrosine mAb (P-Tyr-100), 1:1000 in PBS-T buffer with 1% BSA. Add 100 μl diluted primary antibody to each well. 13. Incubate, with shaking at room temperature for 60 minutes. 14. Wash as described above in step 11. 15. Dilute Europium labeled anti-mouse IgG 1:500 in PBS-T buffer with 1% BSA. Add 100 μl diluted antibody to each well. 16. Incubate, with shaking at room temperature for 30 minutes. 17. Wash five times with 200 μl/well PBS-T buffer. Pat plate on paper towel to remove excess liquid. 18. Add 100 μl/well DELFIA® Enhancement Solution. 19. Incubate, with shaking at room temperature for 5 minutes. 20. Detect 615 nm fluorescence emission with appropriate Time-Resolved Plate Reader.
(§11) Calculate the inhibition rate: IR (%)=100−100*(X−B)/(N−B)
(§12) X=the fluorescence value of the well contained test compound
(§13) The IC50 value can be derived from the IRs of compounds at different concentration gradients.
(In general: ELISA stands for enzyme-linked immunosorbent assay.)

Test [3] has as its target T2, EGFR kinase (Homo sapiens, UniProt P00533).
T2 construct: purchased Cell signaling technology #7908
As to the kind of experiment: EGFR Kinase Assay. In kind it is biochemical. Conditions: 20 μM ATP, 25° C. 45 minutes. On the procedure:
EGFR kinase activity in vitro was measured as described below:
a. Wash Buffer (PBS-T Buffer): 1×PBS (137 mM NaCl, 2.7 mM KCl, 4.3 mM Na2HPO4, 1.4 mM KH2PO4, adjust the pH to 7.2) and 0.05% Tween-20.
as §1
c. Stop Buffer: 50 mM EDTA, pH 8.0
d. DELFIA® Europium-labeled Anti-mouse IgG (PerkinElmer Life Sciences #AD0124)
e. DELFIA® Enhancement Solution (PerkinElmer Life Sciences #1244-105)
f. DELFIA® Streptavidin coated, 96-well, yellow plate (PerkinElmer Life Sciences #AAAND-0005)
g. EGFR kinase (supplied in 50 mM Tris-HCl (pH 8.0), 100 mM NaCl, 5 mM DTT, 15 mM reduced glutathione and 20% glycerol. Cell signaling technology #7908).
as §2
i. PTP1B (Tyr66) Biotinylated Peptide (Cell signaling technology #1325).
as §3, §4, §5, §6, §7
1. Dilute test compound with DMSO to the desired final assay concentration.
2. Dilute 6 μM substrate peptide (Tyr66) 1:1 with dH2O, add 15 μl to every assay.
3. Immediately transfer EGFR enzyme from −80° C. to ice. Allow enzyme to thaw on ice.
4. Take 3 μg EGFR enzyme to the enzyme tube.
as §8, §9
7. Add 4 μl ATP (10 mM) to 496 μl dH2O, take 7.5 μl for every assay.
Final Assay Conditions for a 30 μl Reaction
as §10, with “C. for 45 minutes. 9.” for “C. for 60 minutes. 9.”
as §11, §12, §13

For test [4], the system named is HUVEC cell. Nature of the test: Cell Proliferation Inhibition VEGF-R2 Assay (SRB method). In kind it is cell-based, homo sapient. Conditions: Homo sapiens; HUVEC cells, 72 hours exposure, Sulforhodamine B; read-out: IC50 (VEGFR/HUVEC). From the text:
The following in vitro assay may be used to determine the level of activity and effect of different compounds of the present invention on the proliferation inhibition (cell toxic) of endothelium growth factor receptor (VEGFR) high expressing homo […] cancer cell-HUVEC cell. The cellular assay described here measure the compounds of their anti-angiogenesis and proliferation inhibition activity and effect through […] on the cancer cells in vitro. The effect and activity is represented by the IC50 value that kills the cancer cell. […] The homo […] highly express […] are chosen and seeded to 96-well cell culture plate at a suitable concentration (exp 5000 cells/ml medium). The cells then are cultured in carbon dioxide (CO2) incubator till when they confluence to about 85%. Then, the cell culture medium is replaced by fresh one with tested compounds added in it at serial concentrations (general 6 to 7 concentrations). Then the cells are put back to the culture and cultured for continuous 72 hours. 72 hours later, the cell exposed to compounds and control cell are assayed for their proliferation using Sulforhodamine B (SRB) method. […] Dimethyl sulfoxide (Sinophma chemical reagent company, catalog No. T20050806) • b. HUVEC cells (Purchased from Institute of biochemistry and cell biology) • c. […] Acetic Acid (Sinophma chemical reagent company, Catalog No. T20060508) • l. Trichloroacetic Acid (Sinophma chemical reagent company, Catalog No. T20060305) • m. […] Class II A/B3 Biological safety cabinet (ThermoForma Catalog No. HB0053-03) • o. […] Centrifuge (Fisher Scientific Marathon 8 k, Catalog No. 0027-02) • q. Novastar Plate reader (BMG Labtech, Catalog No. 700-0081) • r. […] Growing seeded 96-well plates at 37° C., 5% CO2, till 85% confluence. • 4. Prepare compounds stock solution, using DMSO solve candidate compounds to a concentration of 20 mM. […] Use cell culture medium (in this case, DMEM/F12+10% FBS) to dilute the compounds solution prepared above. Each DMSO serial concentration compound solution is diluted by 20 times with culture medium by adding 5 μl DMSO compound solution to 95 μl culture medium, then mix well by vortex. […] After HUVEC cell has attached to the dish bottom and confluence about 85%, change the culture medium with fresh DMEM/F12 plus 10% FBS. Each well added 180 μl medium, then add 20 μl medium solution of tested compounds prepared at step 5 to each well. For control group cell, add 20 μl culture medium containing 0.5% pure DMSO. […] Each 96-well plate, we can test 3 compounds with a control cell group. • 7. Put the culture plates back to incubator, culture for 72 hours at 37° C., 5% CO2. • 8. 72 hours later, remove cultures from incubator into sterile work area. • 9. Prepare fixative (50% Trichloroacetic Acid-TCA) by adding reagent grade water to the TCA, fix the cells by gently layering 50 μl of cold TCA solution on top of the growth medium. • 10. Incubate plates for 1 hour at 4° C. and then rinse with water several times to remove TCA, serum proteins, etc. Plates are air dried and stored until use. Bland background optical density is measured in wells incubated with growth medium without cells. • 11. Use 10% acetic acid solution to prepare 0.4% Sulforhodamine B solution. Add 50 μl sulforhodamine B solution to each well of 96-well plates. • 12. Allow cells to stain for 30 minutes. • 13. Prepared the wash solution of […] acetic acid. At the end of the staining period, the stain is removed and the cells rinsed quickly with 1% acetic acid. Repeat until unincorporated dye is removed. Keep wash times to a minimum to reduce desorption of protein-bound dye. After being rinsed, the cultures are air dried until no moisture is visible. • 14. The incorporated dye is then solubilized in a volume of Sulforhodamine B assay Solubilization solution (10 mM Tris) equal to the original volume of culture medium. Allow cultures to stand for 5 minutes at room temperature.

Where [5] appears, read: A-431, A431 cells, 72 hours exposure, Sulforhodamine B.

Read-outs that look alike come from different tables or passages of the source.

T2 sequence (P00533 25-1210): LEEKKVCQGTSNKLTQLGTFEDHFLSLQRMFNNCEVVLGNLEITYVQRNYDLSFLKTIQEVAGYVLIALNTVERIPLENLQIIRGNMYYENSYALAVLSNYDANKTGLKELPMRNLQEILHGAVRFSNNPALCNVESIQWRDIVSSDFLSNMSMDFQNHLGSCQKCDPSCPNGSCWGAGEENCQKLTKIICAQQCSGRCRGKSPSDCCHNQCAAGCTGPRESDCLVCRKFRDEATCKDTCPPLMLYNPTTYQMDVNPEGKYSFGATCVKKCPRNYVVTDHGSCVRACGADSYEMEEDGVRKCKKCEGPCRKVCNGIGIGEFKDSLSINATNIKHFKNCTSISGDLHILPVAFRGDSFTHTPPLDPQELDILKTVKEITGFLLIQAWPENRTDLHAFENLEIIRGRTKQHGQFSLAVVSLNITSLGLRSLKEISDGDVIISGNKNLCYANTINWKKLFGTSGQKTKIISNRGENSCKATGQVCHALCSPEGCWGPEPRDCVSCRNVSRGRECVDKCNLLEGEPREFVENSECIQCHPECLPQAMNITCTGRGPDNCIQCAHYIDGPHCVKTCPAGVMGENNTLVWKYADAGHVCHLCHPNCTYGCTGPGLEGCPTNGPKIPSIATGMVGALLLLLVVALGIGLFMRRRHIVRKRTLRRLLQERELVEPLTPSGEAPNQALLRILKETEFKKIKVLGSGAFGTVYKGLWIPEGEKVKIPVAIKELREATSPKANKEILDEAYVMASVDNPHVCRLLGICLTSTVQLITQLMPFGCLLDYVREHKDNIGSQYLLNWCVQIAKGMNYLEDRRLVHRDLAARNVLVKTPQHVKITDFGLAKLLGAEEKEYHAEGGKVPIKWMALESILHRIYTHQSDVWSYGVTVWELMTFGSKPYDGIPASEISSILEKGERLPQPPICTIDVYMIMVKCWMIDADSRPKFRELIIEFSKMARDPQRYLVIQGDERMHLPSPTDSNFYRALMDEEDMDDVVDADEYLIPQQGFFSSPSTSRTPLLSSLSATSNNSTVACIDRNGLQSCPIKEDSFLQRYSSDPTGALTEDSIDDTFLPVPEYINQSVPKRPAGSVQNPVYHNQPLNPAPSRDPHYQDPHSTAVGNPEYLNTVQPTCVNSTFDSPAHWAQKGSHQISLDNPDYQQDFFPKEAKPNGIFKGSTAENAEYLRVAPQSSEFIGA
T1 sequence (P04626 23-1255): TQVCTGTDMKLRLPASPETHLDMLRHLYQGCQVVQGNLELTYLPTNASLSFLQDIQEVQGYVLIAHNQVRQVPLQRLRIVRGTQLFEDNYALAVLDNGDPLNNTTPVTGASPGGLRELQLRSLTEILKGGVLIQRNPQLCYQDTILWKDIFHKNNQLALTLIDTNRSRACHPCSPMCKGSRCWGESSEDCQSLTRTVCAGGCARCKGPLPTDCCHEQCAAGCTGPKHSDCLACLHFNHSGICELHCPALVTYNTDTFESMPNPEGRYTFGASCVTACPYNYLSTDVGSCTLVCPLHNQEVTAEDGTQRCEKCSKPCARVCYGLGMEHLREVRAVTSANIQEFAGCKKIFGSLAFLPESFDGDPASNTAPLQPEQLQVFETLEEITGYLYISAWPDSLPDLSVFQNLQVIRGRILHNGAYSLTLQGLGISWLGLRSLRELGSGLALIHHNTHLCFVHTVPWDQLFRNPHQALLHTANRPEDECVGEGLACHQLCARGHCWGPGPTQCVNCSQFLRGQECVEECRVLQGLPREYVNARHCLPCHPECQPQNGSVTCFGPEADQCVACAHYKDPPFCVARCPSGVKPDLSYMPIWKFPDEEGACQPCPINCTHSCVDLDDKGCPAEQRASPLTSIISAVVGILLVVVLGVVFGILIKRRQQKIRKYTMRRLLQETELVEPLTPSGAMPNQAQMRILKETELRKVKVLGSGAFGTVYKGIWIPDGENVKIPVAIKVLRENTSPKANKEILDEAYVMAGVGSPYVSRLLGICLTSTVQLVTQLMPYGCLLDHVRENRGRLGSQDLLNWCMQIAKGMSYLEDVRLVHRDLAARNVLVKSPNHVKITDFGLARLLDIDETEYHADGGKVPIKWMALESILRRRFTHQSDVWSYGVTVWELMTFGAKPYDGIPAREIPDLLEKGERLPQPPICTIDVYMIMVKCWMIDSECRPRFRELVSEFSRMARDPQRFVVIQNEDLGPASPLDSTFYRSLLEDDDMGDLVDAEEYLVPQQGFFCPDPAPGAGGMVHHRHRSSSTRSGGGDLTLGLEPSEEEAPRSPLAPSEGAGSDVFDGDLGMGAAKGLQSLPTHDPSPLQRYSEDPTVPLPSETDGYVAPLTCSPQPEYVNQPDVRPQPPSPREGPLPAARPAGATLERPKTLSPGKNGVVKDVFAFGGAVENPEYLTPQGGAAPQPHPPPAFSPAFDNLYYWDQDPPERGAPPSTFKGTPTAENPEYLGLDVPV

In the case of `Cc1c(/C=C2\C(=O)Nc3cccc(-c4cccc(F)c4)c32)[nH]c2c1C(=O)N(CCN1CCCCC1)CC2` [Example 64, 2-[4-(3-Fluoro-phenyl)-2-oxo-1,2-dihydro-indol-3-ylidenemethyl]-3-methyl-5-(2-piperidin-1-yl-ethyl)-1,5,6,7-tetrahydro-pyrrolo[3,2-c]pyridin-4-one], the IC50 was 180 nM in test [1] (setting [5]) and 680 nM in test [2]. Regarding `Cc1c(/C=C2\C(=O)Nc3ccc(F)cc32)[nH]c2c1C(=O)N(CCN1CCCC1)CC2` [Example 13, 2-(5-Fluoro-2-oxo-1,2-dihydro-indol-3-ylidenemethyl)-3-methyl-5-(2-pyrrolidin-1-yl-ethyl)-1,5,6,7-tetrahydro-pyrrolo[3,2-c]pyridin-4-one], the values for the IC50 in test [1] (setting [5]) and in test [3] were 1310 nM and 190 nM, respectively.

Regarding `CCN(CC)CCN1CCc2[nH]c(/C=C3\C(=O)Nc4ccc(F)cc43)c(C)c2C1=O` [Example 1, 5-(2-Diethylamino-ethyl)-2-(5-fluoro-2-oxo-1,2-dihydro-indol-3-ylidenemethyl)-3-methyl-1,5,6,7-tetrahydro-pyrrolo[3,2-c]pyridin-4-one], the IC50 in test [1] (A-431, 72 h) came out at 1090 nM; in test [3], 280 nM. Regarding `O=C1Nc2ccc(Br)cc2/C1=C/c1[nH]c2c(c1-c1ccccc1)C(=O)NCC2` [Example 41, 2-(5-Bromo-2-oxo-1,2-dihydro-indol-3-ylidenemethyl)-3-phenyl-1,5,6,7-tetrahydro-pyrrolo[3,2-c]pyridin-4-one], the IC50 is 220 nM in test [4] and 6010 nM in test [3]. As to `CCN(CC)CCN1CCc2[nH]c(/C=C3\C(=O)Nc4ccc(Br)cc43)c(C)c2C1=O` [Example 3, 2-(5-Bromo-2-oxo-1,2-dihydro-indol-3-ylidenemethyl)-5-(2-diethylamino-ethyl)-3-methyl-1,5,6,7-tetrahydro-pyrrolo[3,2-c]pyridin-4-one], the IC50 in test [1] (A-431, 72 h) was determined as 1260 nM; in test [3] it was 490 nM.

`Cc1c(/C=C2\C(=O)Nc3cccc(Br)c32)[nH]c2c1C(=O)N(CCN1CCOCC1)CC2` [Example 49, 2-(4-Bromo-2-oxo-1,2-dihydro-indol-3-ylidenemethyl)-3-methyl-5-(2-morpholin-4-yl-ethyl)-1,5,6,7-tetrahydro-pyrrolo[3,2-c]pyridin-4-one] yielded an IC50 in test [2] of 36100 nM. `CCN(CC)CCN1CCc2[nH]c(/C=C3\C(=O)Nc4ccc(Cl)cc43)c(C)c2C1=O` [Example 2, 2-(5-Chloro-2-oxo-1,2-dihydro-indol-3-ylidenemethyl)-5-(2-diethylamino-ethyl)-3-methyl-1,5,6,7-tetrahydro-pyrrolo[3,2-c]pyridin-4-one]: the IC50 in test [1] (A-431, 72 h) amounted to 1040 nM; in test [3], 290 nM.
